From patent publication US11319315B2, “Cyclohexyl acid triazole azoles as LPA antagonists” (BRISTOL-MYERS SQUIBB COMPANY, priority 2017, dated 2022)
Where a name gives a salt, the structure may show the parent alone.

target: T1, human LPA1 (Homo sapiens, UniProt Q92633); test: LPA1 functional antagonist assay (LPA-induced calcium flux in CHO cells overexpressing human LPA1); assay type: cell-based; settings: inhibition of calcium flux induced by 10 nM LPA, CHO cells overexpressing human LPA1; read-out: hLPA1 IC50
T1 construct: expressed in transfected cells; host or cells: Chinese hamster ovary (CHO) cells
Procedure, shortened: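 CHO cells overexpressing human LPA1, dye-loaded 30 min at 37 °C, then given compound (0.08 nM–5 μM final, 0.5% DMSO) in HBSS/20 mM HEPES/0.1% fatty-acid-free BSA for 20 min at room temperature before 10 nM LPA. IC50 as 50% inhibition of LPA-evoked calcium flux, 4-parameter logistic fit.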

T1 sequence (Q92633 whole entry): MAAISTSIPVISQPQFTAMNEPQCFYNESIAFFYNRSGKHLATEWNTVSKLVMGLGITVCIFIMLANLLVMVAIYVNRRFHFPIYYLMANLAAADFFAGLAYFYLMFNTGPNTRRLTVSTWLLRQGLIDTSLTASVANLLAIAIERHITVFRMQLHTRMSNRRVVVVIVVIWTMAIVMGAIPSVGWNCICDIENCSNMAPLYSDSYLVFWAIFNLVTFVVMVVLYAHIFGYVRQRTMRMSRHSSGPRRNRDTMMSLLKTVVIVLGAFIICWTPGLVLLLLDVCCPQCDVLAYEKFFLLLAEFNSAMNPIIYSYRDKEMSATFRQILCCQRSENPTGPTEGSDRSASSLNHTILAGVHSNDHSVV

SMILES	IC50 [nM]
Cc1nc(-c2nnn(C)c2CNc2noc(CCC3CCC3)n2)c(F)cc1O[C@H]1CCC[C@H](C(=O)O)C1 [Example 278, (1S,3S)-3-((6-(5-(((5-(2-cyclobutylethyl)-1,2,4-oxadiazol-3-yl)amino)methyl)-1-methyl-1H-1,2,3-triazol-4-yl)-5-fluoro-2-methylpyridin-3-yl)oxy)cyclohexane-1-carboxylic acid]	30
Cc1nc(-c2nnn(C)c2CNc2noc(CCC3CC3)n2)c(F)cc1O[C@H]1CCC[C@H](C(=O)O)C1 [Example 279, (1S,3S)-3-((6-(5-(((5-(2-cyclopropyl-ethyl)-1,2,4-oxadiazol-3-yl)amino)methyl)-1-methyl-1H-1,2,3-triazol-4-yl)-5-fluoro-2-methylpyridin-3-yl)oxy)cyclohexane-1-carboxylic acid]	51
CCCCc1nc(NCc2c(-c3nc(C)c(O[C@H]4CCC[C@H](C(=O)O)C4)cc3F)nnn2C)no1 [Example 280, (1S,3S)-3-((6-(5-(((5-butyl-1,2,4-oxadiazol-3-yl)amino)methyl)-1-methyl-1H-1,2,3-triazol-4-yl)-5-fluoro-2-methylpyridin-3-yl)oxy)cyclohexane-1-carboxylic acid]	143
Cc1nc(-c2nnn(C)c2CNc2noc(CCC(C)C)n2)c(F)cc1O[C@H]1CCC[C@H](C(=O)O)C1 [Example 281, (1S,3S)-3-((5-fluoro-6-(5-(((5-isopentyl-1,2,4-oxadiazol-3-yl)amino)methyl)-1-methyl-1H-1,2,3-triazol-4-yl)-2-methylpyridin-3-yl)oxy)cyclohexane-1-carboxylic acid]	67
Cc1nc(-c2nnn(C)c2CNc2noc(CC3CC3)n2)c(F)cc1O[C@H]1CCC[C@H](C(=O)O)C1 [Example 282, (1S,3S)-3-((6-(5-(((5-(cyclopropylmethyl)-1,2,4-oxadiazol-3-yl)amino)methyl)-1-methyl-1H-1,2,3-triazol-4-yl)-5-fluoro-2-methylpyridin-3-yl)oxy)cyclohexane-1-carboxylic acid]	236
Cc1nc(-c2nnn(C)c2CNc2noc(COC3CCC3)n2)ccc1O[C@H]1CCC[C@H](C(=O)O)C1 [Example 283, (1S,3S)-3-((6-(5-(((5-(cyclobutoxymethyl)-1,2,4-oxadiazol-3-yl)amino)methyl)-1-methyl-1H-1,2,3-triazol-4-yl)-2-methylpyridin-3-yl)oxy)cyclo-hexane-1-carboxylic acid, TFA salt]	19
CCCOCc1nc(NCc2c(-c3ccc(O[C@H]4CCC[C@H](C(=O)O)C4)c(C)n3)nnn2C)no1 [Example 284, (1S,3S)-3-((2-methyl-6-(1-methyl-5-(((5-(propoxymethyl)-1,2,4-oxadi-azol-3-yl)amino)methyl)-1H-1,2,3-triazol-4-yl)pyridin-3-yl)oxy)cyclo-hexane-1-carboxylic acid, TFA salt]	24
CC(C)CCc1nc(NCc2c(-c3ccc(O[C@H]4CCC[C@H](C(=O)O)C4)cn3)nnn2C)no1 [Example 285, (1 S,3 S)-3-((6-(5-(((5-isopentyl-1,2,4-oxadiazol-3-yl)amino)methyl)-1-methyl-1H-1,2,3-triazol-4-yl)pyridin-3-yl)oxy)cyclohexane-1-carboxylic acid]	93
Cn1nnc(-c2ccc(O[C@H]3CCC[C@H](C(=O)O)C3)cn2)c1CNc1noc(CCC2CC2)n1 [Example 286, (1S,3S)-3-((6-(5-(((5-(2-cyclopropyl-ethyl)-1,2,4-oxadiazol-3-yl)amino)methyl)-1-methyl-1H-1,2,3-triazol-4-yl)pyridin-3-yl)oxy)cyclohexane-1-carboxylic acid]	10
CCCCc1nc(NCc2c(-c3ccc(O[C@H]4CCC[C@H](C(=O)O)C4)cn3)nnn2C)no1 [Example 287, (1S,3S)-3-((6-(5-(((5-butyl-1,2,4-oxadiazol-3-yl)amino)methyl)-1-methyl-1H-1,2,3-triazol-4-yl)pyridin-3-yl)oxy)cyclohexane-1-carboxylic acid]	124
Cn1nnc(-c2ccc(O[C@H]3CCC[C@H](C(=O)O)C3)cn2)c1CNc1noc(CC2CCC2)n1 [Example 288, (1S,3S)-3-((6-(5-(((5-(cyclobutylmethyl)-1,2,4-oxadiazol-3-yl)amino)methyl)-1-methyl-1H-1,2,3-triazol-4-yl)pyridin-3-yl)oxy)cyclohexane-1-carboxylic acid]	34.1
Cn1nnc(-c2ccc(O[C@H]3CCC[C@H](C(=O)O)C3)cn2)c1CNc1noc(C2CCCC2)n1 [Example 289, (1S,3S)-3-((6-(5-(((5-cyclopentyl-1,2,4-oxadiazol-3-yl)amino)methyl)-1-methyl-1H-1,2,3-triazol-4-yl)pyridin-3-yl)oxy)cyclohexane-1-carboxylic acid]	50.7
Cn1nnc(-c2ccc(O[C@H]3CCC[C@H](C(=O)O)C3)cn2)c1CNc1noc(CCCC(F)(F)F)n1 [Example 292, (1S,3S)-3-((6-(1-methyl-5-(((5-(4,4,4-trifluorobutyl)-1,2,4-oxadi-azol-3-yl)amino)methyl)-1H-1,2,3-triazol-4-yl)pyridin-3-yl)oxy)cyclohexane-1-carboxylic acid]	48.7
CC(C)c1nc(NCc2c(-c3ccc(O[C@H]4CCC[C@H](C(=O)O)C4)cn3)nnn2C)no1 [Example 293, (1S,3S)-3-((6-(5-(((5-isopropyl-1,2,4-oxadiazol-3-yl)amino)methyl)-1-methyl-1H-1,2,3-triazol-4-yl)pyridin-3-yl)oxy)cyclohexane-1-carboxylic acid]	613
Cn1nnc(-c2ccc(O[C@H]3CCC[C@H](C(=O)O)C3)cn2)c1CNc1noc(CCC2CCC2)n1 [Example 294, (1S,3S)-3-((6-(5-(((5-(2-cyclobutyl-ethyl)-1,2,4-oxadiazol-3-yl)amino)methyl)-1-methyl-1H-1,2,3-triazol-4-yl)pyridin-3-yl)oxy)cyclohexane-1-carboxylic acid]	33.4
Cc1nc(-c2nnn(C)c2Cn2nnc(CC3CCC3)n2)ccc1O[C@H]1CCC[C@H](C(=O)O)C1 [Example 295, (1S,3S)-3-{[6-(5-{[5-(cyclobutyl-methyl)-2H-1,2,3,4-tetrazol-2-yl]methyl}-1-methyl-1H-1,2,3-triazol-4-yl)-2-methylpyridin-3-yl]oxy}cyclohexane-1-carboxylic acid]	102
Cc1nc(-c2nnn(C)c2Cn2nnc(CCC3CC3)n2)ccc1O[C@H]1CCC[C@H](C(=O)O)C1 [Example 296, (1S,3S)-3-{[6-(5-{[5-(2-cyclopropyl-ethyl)-2H-1,2,3,4-tetrazol-2-yl]methyl}-1-methyl-1H-1,2,3-triazol-4-yl)-2-methylpyridin-3-yl]oxy}cyclohexane-1-carboxylic acid]	96
Cc1nc(-c2nnn(C)c2Cn2nnc([C@H]3CCCO3)n2)ccc1O[C@H]1CCC[C@H](C(=O)O)C1 [Example 297, (1S,3S)-3-({2-methyl-6-[1-methyl-5-({5-[(2R)-oxolan-2-yl]-2H-1,2,3,4-tetrazol-2-yl}methyl)-1H-1,2,3-triazol-4-yl]pyridin-3-yl}oxy)cyclohexane-1-carboxylic acid]	92
Cc1nc(-c2nnn(C)c2Cn2nnnc2C(C)C)ccc1O[C@H]1CCC[C@H](C(=O)O)C1 [Example 298, (1S,3S)-3-{[2-methyl-6-(1-methyl-5-{[5-(propan-2-yl)-1H-1,2,3,4-tetrazol-1-yl]methyl}-1H-1,2,3-triazol-4-yl)pyridin-3-yl]oxy}cyclohexane-1-carboxylic acid]	96
Cc1nc(-c2nnn(C)c2Cn2nnc(C(C)C)n2)ccc1O[C@H]1CCC[C@H](C(=O)O)C1 [Example 299, (1S,3S)-3-{[2-methyl-6-(1-methyl-5-{[5-(propan-2-yl)-2H-1,2,3,4-tetrazol-2-yl]methyl}-1H-1,2,3-triazol-4-yl)pyridin-3-yl]oxy}cyclo-hexane-1-carboxylic acid]	99
Cc1nc(-c2nnn(C)c2Cn2nnc(COc3ccccc3)n2)ccc1O[C@H]1CCC[C@H](C(=O)O)C1 [Example 300, (1S,3S)-3-{[2-methyl-6-(1-methyl-5-{[5-(phenoxymethyl)-2H-1,2,3,4-tetrazol-2-yl]methyl}-1H-1,2,3-triazol-4-yl)pyridin-3-yl]oxy}cyclohexane-1-carboxylic acid]	98
Cc1cc(C)n(Cc2nnn(Cc3c(-c4ccc(O[C@H]5CCC[C@H](C(=O)O)C5)c(C)n4)nnn3C)n2)n1 [Example 301, (1S,3S)-3-({6-[5-({5-[(3,5-dimethyl-1H-pyrazol-1-yl)methyl]-2H-1,2,3,4-tetrazol-2-yl}methyl)-1-methyl-1H-1,2,3-triazol-4-yl]-2-methylpyridin-3-yl}oxy)cyclohexane-1-carboxylic acid]	963
CCCOCc1nnn(Cc2c(-c3ccc(O[C@H]4CCC[C@H](C(=O)O)C4)c(C)n3)nnn2C)n1 [Example 302, (1S,3S)-3-{[2-methyl-6-(1-methyl-5-{[5-(propoxymethyl)-2H-1,2,3,4-tetrazol-2-yl]methyl}-1H-1,2,3-triazol-4-yl)pyridin-3-yl]oxy}cyclohexane-1-carboxylic acid]	63
Cc1ccn(Cc2nnnn2Cc2c(-c3ccc(O[C@H]4CCC[C@H](C(=O)O)C4)c(C)n3)nnn2C)n1 [Example 303, (1S,3S)-3-({2-methyl-6-[1-methyl-5-({5-[(3-methyl-1H-pyrazol-1-yl)methyl]-1H-1,2,3,4-tetrazol-1-yl}methyl)-1H-1,2,3-triazol-4-yl]pyridin-3-yl}oxy)cyclohexane-1-carboxylic acid]	951
Cc1nc(-c2nnn(C)c2Cn2nnnc2COc2ccccc2)ccc1O[C@H]1CCC[C@H](C(=O)O)C1 [Example 304, (1S,3S)-3-{[2-methyl-6-(1-methyl-5-{[5-(phenoxymethyl)-1H-1,2,3,4-tetrazol-1-yl]methyl}-1H-1,2,3-triazol-4-yl)pyridin-3-yl]oxy}cyclohexane-1-carboxylic acid]	124
